Values after ≈ are worked out from the molar mass of the structure shown.
What was measured:
[1] = test system: E. coli spontaneous mutants; assay: Broth microdilution MIC of spontaneous mutants; format: cell-based, Escherichia coli
Protocol: (§1) Select isolates were subcultured onto agar containing drug at the selection concentration, were identified by MALDI, and were frozen for broth microdilution MIC testing as described below.
(§2) To determine whether colonies growing on drug selection plates had elevated MIC values to the selecting antibiotic, susceptibility testing by broth microdilution was conducted on isolated mutants following methodology recommended by CLSI (1), (2), and (3) “Performance Standards for Antimicrobial Susceptibility Testing; Twenty-Eighth Informational Supplement.,” CLSI document M100-S28, 2018.
(§3) All wells in columns 2 through 12 of a standard 96-well microdilution plate (Costar 3795) were filled with 150 μL of the appropriate diluent. Then, 300 μL of the test agents were added to the wells of column 1 of the plates at […] the highest final concentration to be tested. Serial two-fold dilutions were made across the rows through column 11 using the Biomek 2000. The wells of column 12 contained no drug and served as the growth control wells. This plate served as the “mother plate” from which selected MIC assay plates or “daughter plates” were made.
(§4) 2 μL of drug solution from each well of a mother plate was added to each corresponding well of the daughter plate in a single step. A standardized inoculum of each aerobic test organism was prepared per CLSI methods to equal a 0.5 McFarland standard, followed by a dilution of 1:20 in MHB II. The plates were then inoculated with 10 μL of the diluted inoculum using the Biomek 2000 from low to high drug concentration, resulting in a final concentration of approximately 5×10^5 CFU/mL. An un-inoculated plate was incubated for the purpose of assessing solubility of the drug in the test media.
(§5) The plates for the aerobic tests were stacked 3-4 high, covered with a sterile lid on the top plate, and incubated aerobically at 35° C. for 18-20 hr. The MIC was recorded as the lowest concentration of drug that inhibited visible growth of the organism.

[2] = test system: Streptococcus spp. spontaneous mutants; assay: organism not typed; format: cell-based
Protocol: as §1, §2, §3, §4, §5

[3] = test system: E. coli spontaneous mutants; details: E. coli ATCC 25922; CLSI QC range shown in parentheses; cited from earlier work
[4] = test system: Streptococcus spp. spontaneous mutants; details: S. pneumoniae ATCC 49619; CLSI QC range shown in parentheses; cited from earlier work

## CN(C)[C@@H]1C(O)=C(C(N)=O)C(=O)[C@@]2(O)C(O)=C3C(=O)c4c(O)cccc4[C@@](C)(O)[C@H]3C[C@@H]12 [TET]
[1]; E. coli ATCC 25922, selected on rifaximin 4X MIC, Colony A
  MIC: 0.5 µg/mL
[1]; E. coli ATCC 25922, selected on rifaximin 4X MIC, Colony B
  MIC: 1 µg/mL
[1]; E. coli ATCC 25922, selected on rifaximin 8X MIC, Colony A
  MIC: 1 µg/mL
[1]; E. coli ATCC 25922, selected on rifaximin 8X MIC, Colony B
  MIC: 1 µg/mL
[1]; E. coli ATCC 25922 Parent (Table 52)
  MIC: 1 µg/mL
[1]; E. coli ATCC 35218, selected on rifaximin 4X MIC, Colony A
  MIC: 2 µg/mL
[1]; E. coli ATCC 35218, selected on rifaximin 4X MIC, Colony B
  MIC: 1 µg/mL
[1]; E. coli ATCC 35218, selected on rifaximin 8X MIC, Colony A
  MIC: 0.5 µg/mL
[1]; E. coli ATCC 35218, selected on rifaximin 8X MIC, Colony B
  MIC: 2 µg/mL
[1]; E. coli ATCC 35218 Parent (Table 52)
  MIC: 1 µg/mL
[1]; E. coli MMX 1312, selected on ceftriaxone 4X MIC, Colony A
  MIC: >16 µg/mL
[1]; E. coli MMX 1312, selected on ceftriaxone 4X MIC, Colony B
  MIC: >16 µg/mL
[1]; E. coli MMX 1312, selected on ceftriaxone 4X MIC, Colony C
  MIC: >16 µg/mL
[1]; E. coli MMX 1312, selected on ceftriaxone 8X MIC, Colony A
  MIC: >16 µg/mL
[1]; E. coli MMX 1312, selected on ceftriaxone 8X MIC, Colony B
  MIC: >16 µg/mL
[1]; E. coli MMX 1312, selected on ceftriaxone 8X MIC, Colony C
  MIC: >16 µg/mL
[1]; E. coli MMX 1312, selected on rifaximin 4X MIC, Colony A
  MIC: >16 µg/mL
[1]; E. coli MMX 1312, selected on rifaximin 4X MIC, Colony B
  MIC: >16 µg/mL
[1]; E. coli MMX 1312, selected on rifaximin 8X MIC, Colony A
  MIC: >16 µg/mL
[1]; E. coli MMX 1312, selected on rifaximin 8X MIC, Colony B
  MIC: >16 µg/mL
[1]; E. coli MMX 1312 Parent
  MIC: >16 µg/mL
[1]; E. coli MMX 1312 Parent (Table 49)
  MIC: >16 µg/mL
[1]; E. coli MMX 1312 Parent (Table 52)
  MIC: >16 µg/mL
[1]; E. coli MMX 1312 mutant selected on meropenem 4X MIC, colony A
  MIC: >16 µg/mL
[1]; E. coli MMX 1312 mutant selected on meropenem 4X MIC, colony B
  MIC: >16 µg/mL
[1]; E. coli MMX 1312 mutant selected on meropenem 4X MIC, colony C
  MIC: 4 µg/mL
[1]; E. coli MMX 1312 mutant selected on meropenem 8X MIC, colony A
  MIC: >16 µg/mL
[1]; E. coli MMX 1312 mutant selected on meropenem 8X MIC, colony B
  MIC: >16 µg/mL
[1]; E. coli MMX 1312 mutant selected on meropenem 8X MIC, colony C
  MIC: >16 µg/mL
[2]; S. agaloctiae ATCC 13813, selected on rifaximin 4X MIC, Colony A
  MIC: 0.12 µg/mL (≈ 0.27 µM)
[2]; S. agaloctiae ATCC 13813, selected on rifaximin 4X MIC, Colony B
  MIC: 0.12 µg/mL (≈ 0.27 µM)
[2]; S. agaloctiae ATCC 13813, selected on rifaximin 8X MIC, Colony A
  MIC: 0.12 µg/mL (≈ 0.27 µM)
[2]; S. agaloctiae ATCC 13813, selected on rifaximin 8X MIC, Colony B
  MIC: 0.25 µg/mL (≈ 0.563 µM)
[2]; S. agaloctiae ATCC 13813 Parent
  MIC: 0.12 µg/mL (≈ 0.27 µM)
[2]; S. pneumoniae ATCC 49619, selected on rifaximin 4X MIC, Colony A
  MIC: 0.06 µg/mL (≈ 0.135 µM)
[2]; S. pneumoniae ATCC 49619, selected on rifaximin 4X MIC, Colony B
  MIC: 0.06 µg/mL (≈ 0.135 µM)
[2]; S. pneumoniae ATCC 49619, selected on rifaximin 8X MIC, Colony A
  MIC: 0.06 µg/mL (≈ 0.135 µM)
[2]; S. pneumoniae ATCC 49619, selected on rifaximin 8X MIC, Colony B
  MIC: 0.06 µg/mL (≈ 0.135 µM)
[2]; S. pneumoniae ATCC 49619 Parent
  MIC: 0.12 µg/mL (≈ 0.27 µM)
[2]; S. pyogenes ATCC 49399, selected on rifaximin 4X MIC, Colony A
  MIC: 0.12 µg/mL (≈ 0.27 µM)
[2]; S. pyogenes ATCC 49399, selected on rifaximin 4X MIC, Colony B
  MIC: 0.12 µg/mL (≈ 0.27 µM)
[2]; S. pyogenes ATCC 49399, selected on rifaximin 8X MIC, Colony A
  MIC: 0.12 µg/mL (≈ 0.27 µM)
[2]; S. pyogenes ATCC 49399, selected on rifaximin 8X MIC, Colony B
  MIC: 0.12 µg/mL (≈ 0.27 µM)
[2]; S. pyogenes ATCC 49399 Parent
  MIC: 0.12 µg/mL (≈ 0.27 µM)
[3]
  MIC, CLSI QC range: (0.5-2) μg/mL
[4]
  MIC, CLSI QC range: (0.06-0.5) μg/mL
